Experimental data published in ChEMBL document CHEMBL6092187, “Enantiomerically Pure Indazole Bioisosteres of Ifenprodil and Ro 25-6981 as Negative Allosteric Modulators of NMDA Receptors with the GluN2B Subunit” (J Med Chem, 2024).
pKi: −log10 of the molar value.

Columns and labels:
[1] = target: Sigma non-opioid intracellular receptor 1 (Cavia porcellus, UniProt Q60492); assay: Displacement of [3H](+)-pentazocine from sigma1 receptor in guniea pig brain membrane assessed as inhibition constant by competitive binding assay; format: cell membranes
Sequence of Sigma non-opioid intracellular receptor 1 (Q60492 whole entry): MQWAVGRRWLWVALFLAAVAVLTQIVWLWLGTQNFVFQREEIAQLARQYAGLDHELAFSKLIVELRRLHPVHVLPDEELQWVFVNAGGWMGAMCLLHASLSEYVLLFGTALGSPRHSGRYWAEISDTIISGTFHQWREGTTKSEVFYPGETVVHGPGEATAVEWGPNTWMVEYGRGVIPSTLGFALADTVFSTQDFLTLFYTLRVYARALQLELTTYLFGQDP

[2] = target: T1, Sigma intracellular receptor 2 (Rattus norvegicus, UniProt Q5U3Y7); assay: Displacement of [3H](+)-pentazocine from sigma2 receptor in rat liver membrane assessed as inhibition constant by competitive binding assay; format: cell membranes
T1 sequence (Q5U3Y7 whole entry): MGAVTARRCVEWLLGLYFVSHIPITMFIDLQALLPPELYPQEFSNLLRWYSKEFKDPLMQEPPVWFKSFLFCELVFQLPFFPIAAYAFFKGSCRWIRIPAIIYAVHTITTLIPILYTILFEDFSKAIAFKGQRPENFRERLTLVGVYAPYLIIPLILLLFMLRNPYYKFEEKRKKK

Albumin = Albumin (Homo sapiens, UniProt P02768); assay: Binding affinity to human serum albumin measured after 60 mins by high performance affinity chromatography based LC-MS analysis; details: 1 h
Sequence of Albumin (P02768 whole entry): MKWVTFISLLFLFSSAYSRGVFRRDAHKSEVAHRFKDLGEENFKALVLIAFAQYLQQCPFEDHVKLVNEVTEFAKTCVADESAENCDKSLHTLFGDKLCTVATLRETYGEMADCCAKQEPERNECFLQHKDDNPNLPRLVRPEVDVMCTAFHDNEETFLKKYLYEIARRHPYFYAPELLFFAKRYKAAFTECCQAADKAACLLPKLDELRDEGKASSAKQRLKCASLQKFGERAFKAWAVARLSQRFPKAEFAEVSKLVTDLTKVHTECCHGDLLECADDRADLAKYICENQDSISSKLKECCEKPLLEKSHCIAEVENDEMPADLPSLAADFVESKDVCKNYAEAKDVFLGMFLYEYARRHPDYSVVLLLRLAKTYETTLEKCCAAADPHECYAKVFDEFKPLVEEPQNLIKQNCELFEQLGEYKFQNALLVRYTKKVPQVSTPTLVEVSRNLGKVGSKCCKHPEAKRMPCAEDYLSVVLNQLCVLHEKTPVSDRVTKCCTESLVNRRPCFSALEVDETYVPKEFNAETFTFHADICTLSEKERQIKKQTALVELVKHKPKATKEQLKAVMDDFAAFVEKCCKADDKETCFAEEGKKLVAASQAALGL

[3] = Metabolic stability in human liver microsomes assessed as half-life at 10 uM measured after 120 mins by LC-MS/MS analysis; format: ADME, Microsome
[4] = target: Glutamate receptor ionotropic, NMDA 2B (Homo sapiens, UniProt Q13224); assay: Displacement of [3H]ifenprodil from human GluN2B receptor extracted from mouse LTK- cell membrane assessed as inhibition constant by competitive binding assay; format: cell membranes
Sequence of Glutamate receptor ionotropic, NMDA 2B (Q13224 whole entry): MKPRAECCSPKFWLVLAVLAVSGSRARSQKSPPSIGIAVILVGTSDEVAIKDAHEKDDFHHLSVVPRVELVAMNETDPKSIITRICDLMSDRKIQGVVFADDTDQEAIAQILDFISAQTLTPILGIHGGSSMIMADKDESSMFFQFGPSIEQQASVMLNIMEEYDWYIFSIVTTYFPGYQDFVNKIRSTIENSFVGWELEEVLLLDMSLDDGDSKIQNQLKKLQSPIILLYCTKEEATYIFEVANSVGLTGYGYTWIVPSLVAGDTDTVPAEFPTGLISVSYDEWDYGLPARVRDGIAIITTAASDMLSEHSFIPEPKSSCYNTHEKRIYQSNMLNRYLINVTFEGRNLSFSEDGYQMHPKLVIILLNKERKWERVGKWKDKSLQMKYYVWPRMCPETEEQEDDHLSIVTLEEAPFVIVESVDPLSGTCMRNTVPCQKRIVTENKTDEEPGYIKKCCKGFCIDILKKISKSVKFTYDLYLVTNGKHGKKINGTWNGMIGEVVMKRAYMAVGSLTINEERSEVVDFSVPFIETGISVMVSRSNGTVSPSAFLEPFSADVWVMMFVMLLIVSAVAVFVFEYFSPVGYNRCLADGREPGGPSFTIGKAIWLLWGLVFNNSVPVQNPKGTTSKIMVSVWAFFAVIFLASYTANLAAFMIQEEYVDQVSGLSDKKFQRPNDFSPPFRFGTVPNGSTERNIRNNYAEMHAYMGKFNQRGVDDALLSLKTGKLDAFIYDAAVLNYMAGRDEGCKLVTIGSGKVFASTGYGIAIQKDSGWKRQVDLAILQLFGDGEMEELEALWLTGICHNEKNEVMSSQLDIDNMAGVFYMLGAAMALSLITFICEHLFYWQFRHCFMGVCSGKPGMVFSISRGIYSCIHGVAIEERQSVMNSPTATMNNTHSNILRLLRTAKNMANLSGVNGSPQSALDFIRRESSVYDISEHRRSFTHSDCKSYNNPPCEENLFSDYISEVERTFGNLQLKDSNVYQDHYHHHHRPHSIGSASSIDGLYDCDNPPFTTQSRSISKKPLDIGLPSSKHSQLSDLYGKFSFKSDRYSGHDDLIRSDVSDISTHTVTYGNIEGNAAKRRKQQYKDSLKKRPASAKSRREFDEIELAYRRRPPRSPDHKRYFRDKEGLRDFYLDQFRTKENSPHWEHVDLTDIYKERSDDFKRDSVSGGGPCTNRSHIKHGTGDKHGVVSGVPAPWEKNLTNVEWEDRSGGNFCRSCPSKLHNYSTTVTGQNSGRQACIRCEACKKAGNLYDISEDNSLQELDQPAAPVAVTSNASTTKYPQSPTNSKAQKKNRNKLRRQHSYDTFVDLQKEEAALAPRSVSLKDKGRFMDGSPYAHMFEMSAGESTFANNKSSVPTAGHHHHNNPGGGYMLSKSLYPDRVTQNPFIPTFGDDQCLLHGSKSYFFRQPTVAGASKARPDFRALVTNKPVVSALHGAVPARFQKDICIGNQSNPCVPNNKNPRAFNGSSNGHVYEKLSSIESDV

[5] = mouse, microsomes, 1.5 h
Description: Drug metabolism in mouse liver microsomes assessed as glucuronic acid conjugates formation measured after 90 mins in presence of UDP-GA by LC-MS analysis

physchem = details: n-octanol/3-morpholinopropanesulfonic acid (MOPS) buffer, pH 7.4
in vitro = details: mouse, liver microsomes
Description: Metabolic stability in mouse liver microsomes assessed as parent compound remaining measured after 90 mins in presence of NADPH by HPLC analysis

Row | pKi [1] | pKi [2] | Activity (Albumin) | half-life at 10 µM [3] | pKi [4] | Drug metabolism [5] | logD (physchem) | remaining at 1.5 h (in vitro) | SMILES
1 | 7.37 | 7.38 | 93% |  |  |  |  |  | C[C@H](CN1CCC(Cc2ccccc2)CC1)[C@@H](O)c1ccc2[nH]ncc2c1
2 | 6.17 | 6.95 | 90% |  |  |  |  |  | C[C@H]([C@H](O)c1ccc2[nH]ncc2c1)N1CCC(Cc2ccccc2)CC1 (stereo in doubt; 11c)
3 | 6.50 | 6.58 | 92% |  |  |  |  |  | C[C@H]([C@@H](O)c1ccc2[nH]ncc2c1)N1CCC(Cc2ccccc2)CC1
4 | 7.62 | 6.95 | 89% |  |  |  |  |  | C[C@H](CN1CCC(Cc2ccccc2)CC1)[C@H](O)c1ccc2[nH]ncc2c1 (stereo in doubt; 10a)
5 | 7.02 | 7.48 | 92% |  |  |  |  |  | C[C@@H]([C@H](O)c1ccc2[nH]ncc2c1)N1CCC(Cc2ccccc2)CC1 (stereo in doubt; 11a)
6 | 7.34 | 6.57 | 93% |  |  |  |  |  | C[C@@H](CN1CCC(Cc2ccccc2)CC1)[C@H](O)c1ccc2[nH]ncc2c1 (stereo in doubt; 10c)
7 |  |  | 82% | 23.7 min | 6.87 | metabolite_detected | 1.9 | 5% | C[C@@H](CN1CCC(Cc2ccccc2)CC1)[C@@H](O)c1ccc(O)cc1
8 |  |  | 84% |  |  | metabolite_detected | 1.43 | 91.4% | CC(C(O)c1ccc(O)cc1)N1CCC(Cc2ccccc2)CC1 (configuration not stated) [IFENPRODIL]
9 | 6.28 | 6.25 | 91% |  |  |  |  |  | C[C@@H]([C@@H](O)c1ccc2[nH]ncc2c1)N1CCC(Cc2ccccc2)CC1
10 | 7.47 | 7.72 |  |  |  |  |  |  | C[C@H]([C@H](O)c1ccc2[nH]ncc2c1)N1CCC(Cc2ccccc2)CC1 (stereo in doubt; 11cd)
11 | 7.25 | 6.41 |  |  |  |  |  |  | C[C@H](CN1CCC(Cc2ccccc2)CC1)[C@H](O)c1ccc2[nH]ncc2c1 (stereo in doubt; 10ab)
12 | 7.36 | 7.24 |  |  |  |  |  |  | C[C@@H](CN1CCC(Cc2ccccc2)CC1)[C@H](O)c1ccc2[nH]ncc2c1 (stereo in doubt; 10cd)
13 | 7.42 | 6.61 |  |  |  |  |  |  | C[C@@H]([C@H](O)c1ccc2[nH]ncc2c1)N1CCC(Cc2ccccc2)CC1 (stereo in doubt; 11ab)
14 | 7.68 | 6.68 | 89% |  |  |  |  |  | C[C@@H](CN1CCC(Cc2ccccc2)CC1)[C@@H](O)c1ccc2[nH]ncc2c1
